Reference: US8772463B2, “Fluorescent dye-labeled glucose bioprobe, synthesis method and usage thereof” (SNU R&DB Foundation, priority 2007, dated 2014)

What was measured:
NIH/3T3 cells = experiment: FACS-based flow cytometric analysis of probe uptake with/without 11 mM D-glucose; assay type: cell-based, murine; details: probe 5 μM; glucose-depleted condition normalized to 100
Description: FACS (Fluorescence Activated Cell Sorting)-based flow cytometric analysis was used to compare cellular uptake efficiency in NIH/3T3 cells among the glucose probe [2-(N-Cy3-piperazinoethyl)]-α-D-glucose (GB2-Cy3), synthesized in Example 2, the conventional fluorescent glucose probe 2-NBDG and the glucose probe Cy3-Glc-α, synthesized in Example 1.
NIH/3T3 cells were cultured on 10 cm cell culture dishes and transferred in a volume of 3×10^5 cells into each FACS tube (5 mL, BD). They were washed once with cold PBS before incubation at 37° C. for 30 min in 11 mM D-glucose-containing PBS or glucose-free PBS in the presence of the bioprobe [GB2-Cy3 (5 μM), 2-NBDG (5 μM or 50 μM) or Cy3-Glc-α (5 μM)]. Cells that were incubated without the bioprobes were used as a negative control. After being washed with cold PBS, 1×10^4 NIH/3T3 cells were analyzed on FACSCalibur™ (FACS-based flow cytometer). GBs-Cy3 was detected by FL2 channels. Raw data of 1×10^4 cells are shown in histograms, with the mean values thereof given in the graph of FIG. 21.

cells = experiment: Cell viability, CCK-8 kit; assay type: cell-based; details: Cy3-Glc-α 12.5 μM
Description: (2) Therefore, Cy3-Glc-α should not affect cell viability. The viability of cells treated with Cy3-Glc-α (12.5 μM) by using a CCK-8 kit (Cell Counting Kit-8, Dojindo, Japan) was measured by using an ELISA plate reader (ELx800™, BioTex, USA) DP. CCK-8 is a colorimetric assay for determining the number of viable cells in cell proliferation and cytotoxicity assays. The principle of measuring cell viability of CCK-8 is the same as that of MTT. However, CCK-8 is more sensitive than MTT.

**Q.** Which results are given for `C[N+]1=C(/C=C/C=C2/N(CCCCC(=O)NCCOCCOCCNCCOC3OC(CO)C(O)C(O)C3O)c3ccccc3C2(C)C)C(C)(C)c2ccccc21` [Cy3-Glc-α, [2-(N-Cy3-3,6-dioxaoctane-1,8-diaminoethyl)]-α-D-glucose]?
**A.** reduction in cellular uptake due to 11 mM D-glucose (NIH/3T3 cells): about 50%; cell viability (cells): does not affect cell viability
